Reference: patent publication US8349897B2, “Biphenyloxyacetic acid derivatives for the treatment of respiratory disease” (Astrazeneca AB, priority 2005, dated 2013)

The molecules below were run against T1, rhCRTh2 (Homo sapiens, UniProt Q9Y5Y4) (assay: Ligand binding assay ([3H]PGD2 SPA, HEK cell membranes)). Settings: [3H]PGD2 displacement, membranes of HEK cells expressing rhCRTh2/Gα16, SPA beads, 2 hours room temperature; read-out: pIC50 value (converted).
T1 construct: expressed in transfected cells; host or cells: HEK cells (membrane preparation)
T1 sequence (Q9Y5Y4 1-395): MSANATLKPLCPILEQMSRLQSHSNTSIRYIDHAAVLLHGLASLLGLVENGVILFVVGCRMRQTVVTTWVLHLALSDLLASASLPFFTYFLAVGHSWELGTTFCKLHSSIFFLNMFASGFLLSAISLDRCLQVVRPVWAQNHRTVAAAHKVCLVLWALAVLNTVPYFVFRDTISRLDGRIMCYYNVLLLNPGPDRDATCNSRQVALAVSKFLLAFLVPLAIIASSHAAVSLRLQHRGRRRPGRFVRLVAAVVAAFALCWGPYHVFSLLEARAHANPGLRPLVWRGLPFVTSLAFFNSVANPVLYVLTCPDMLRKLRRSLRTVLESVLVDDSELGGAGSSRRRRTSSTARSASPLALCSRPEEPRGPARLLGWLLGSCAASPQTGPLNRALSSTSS
Procedure: [^3H]PGD2 was purchased from Perkin Elmer Life Sciences with a specific activity of 100-210 Ci/mmol. All other chemicals were of analytical grade.
HEK cells expressing rhCRTh2/Gα16 were routinely maintained in DMEM containing 10% Foetal Bovine Serum (HyClone), 1 mg/ml geneticin, 2 mM L-glutamine and 1% non-essential amino acids. For the preparation of membranes, the adherent transfected HEKcells were grown to confluence in two layer tissue culture factories (Fisher, catalogue number TKT-170-070E). Maximal levels of receptor expression were induced by addition of […] sodium butyrate for the last 18 hours of culture. The adherent cells were washed once with phosphate buffered saline (PBS, 50 ml per cell factory) and detached by the addition of 50 ml per cell factory of ice-cold membrane homogenisation buffer [20 mM HEPES (pH 7.4), 0.1 mM dithiothreitol, 1 mM EDTA, 0.1 mM phenyl methyl sulphonyl fluoride and 100 μg/ml bacitracin]. […] The final pellet was re-suspended in 4 ml of membrane homogenisation buffer per cell factory used and the protein content determined. […]
All assays were performed in Corning clear bottomed, white 96-well NBS plates (Fisher). […] (The optimum coating concentrations were determined for each batch of membranes) The beads were pelleted by centrifugation (800×g for 7 minutes at 4° C.), washed once with assay buffer (50 mM HEPES pH 7.4 containing 5 mM magnesium chloride) and finally re-suspended in assay buffer at a bead concentration of 10 mg/ml.
Each assay contained 20 μl of 6.25 nM [^3H]PGD2, 20 μl membrane saturated SPA beads both in assay buffer and 10 μl of compound solution or 13,14-dihydro-15-keto prostaglandin D2 (DK-PGD2, for determination of non-specific binding, Cayman chemical company). […] The assay plate was incubated at room temperature for 2 hours and counted on a Wallac Microbeta liquid scintillation counter (1 minute per well).
With `C[C@H](Oc1ccc(F)cc1-c1ccc(S(=O)(=O)c2ccccc2)cc1Cl)C(=O)O` [Example 15, (2S)-2-{[2′-chloro-5-fluoro-4′-(phenylsulfonyl)biphenyl-2-yl]oxy}propanoic acid] the IC50 was 1.58 nM.
`O=C(O)COc1ccc(F)cc1-c1ccc(S(=O)(=O)c2ccccc2)c(C(F)(F)F)c1` [Example 7, {[5-fluoro-4′-(phenylsulfonyl)-3′-(trifluoromethyl)biphenyl-2-yl]oxy}acetic acid] gave an IC50 of 3.16 nM.
With `C[C@H](Oc1ccc(Cl)cc1-c1ccc(S(=O)(=O)c2ccc(F)cc2)cc1)C(=O)O` [Example 8, (2S)-2-({5-chloro-4′-[(4-fluorophenyl)sulfonyl]biphenyl-2-yl}oxy)propanoic acid] the IC50 was 1.58 nM.
